We go through two compounds from patent CN110698367A, “一种n-(1-取代萘基)-4-甲氧基苯磺酰胺类化合物及其制备和应用” (Wenzhou Medical University, priority 2019, dated 2020).

Each structure is given as a SMILES string.

Assay [1] deals with breast cancer cells MDA-MB-231 [乳腺癌细胞MDA-MB-231]. Put plainly: MTT antiproliferation assay, MDA-MB-231. The format is cell-based. To be noted: Homo sapiens, 48 h.
Assay [2] concerns non-small cell lung cancer cells A549 [非小细胞肺癌细胞A549]. Put plainly: MTT antiproliferation assay, A549. The format is cell-based. Conditions: Homo sapiens, 48 h.
In assay [3] the test system is colon cancer cells HCT-116 [结肠癌细胞HCT-116]. Put plainly: MTT antiproliferation assay, HCT-116. Conditions: Homo sapiens, 48 h. The format is cell-based.
The subject of assay [4] is upstream kinase JAK [上游激酶JAK]. To be noted: background statement; in words; cited from earlier work.
The subject of assay [5] is STAT1 phosphorylation [STAT1的磷酸化]. To be noted: background statement; in words; cited from earlier work.
For assay [6], the target named is upstream kinase Src [上游激酶JAK或Src] (Homo sapiens, UniProt P12931). To be noted: background statement; in words; cited from earlier work.
Another assay concerns tumour cells [肿瘤细胞]. To be noted: background statement, in words; cited from earlier work.
Assay [7] concerns STAT3 phosphorylation [STAT3的磷酸化]. Conditions: background statement; in words; cited from earlier work.

Chain of upstream kinase Src [上游激酶JAK或Src] (P12931 whole entry): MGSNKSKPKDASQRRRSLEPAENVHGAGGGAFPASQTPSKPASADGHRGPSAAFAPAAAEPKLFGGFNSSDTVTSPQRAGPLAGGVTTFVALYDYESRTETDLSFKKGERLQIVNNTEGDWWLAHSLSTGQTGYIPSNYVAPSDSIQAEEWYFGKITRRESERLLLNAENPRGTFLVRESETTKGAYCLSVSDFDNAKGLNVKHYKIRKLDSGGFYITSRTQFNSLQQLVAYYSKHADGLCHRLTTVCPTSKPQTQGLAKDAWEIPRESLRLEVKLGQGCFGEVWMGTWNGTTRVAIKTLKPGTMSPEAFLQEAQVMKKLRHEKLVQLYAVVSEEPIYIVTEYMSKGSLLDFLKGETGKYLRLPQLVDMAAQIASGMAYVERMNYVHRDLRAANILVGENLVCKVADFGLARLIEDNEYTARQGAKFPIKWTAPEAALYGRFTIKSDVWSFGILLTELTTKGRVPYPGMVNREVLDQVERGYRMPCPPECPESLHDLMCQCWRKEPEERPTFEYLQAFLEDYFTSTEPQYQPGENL

Take `COc1ccc(S(=O)(=O)Nc2ccc(-c3ccc(C#N)c(F)c3)c3ccccc23)cc1` [VI 10]: the IC50 in assay [1] came out at 5.88 µM; in assay [2] it was 4.46 µM; in assay [3], 4.83 µM.

Take `COc1ccc(S(=O)(=O)Nc2cc(-c3c(O)ccc4ccccc34)c(O)c3ccccc23)cc1` [C188-9]: the “inhibition of upstream kinase JAK” value in assay [4] is on record as “无明显抑制作用”. Besides, in assay [5], the “inhibition of STAT1 phosphorylation” value is “有一定的抑制作用”. Also, in assay [6], the “inhibition of upstream kinase Src” value was “无明显抑制作用”. Moreover, the IC50 result in the assay on tumour cells [肿瘤细胞] is recorded as “较高”. In addition, the “inhibition of STAT3 phosphorylation” value in assay [7] is “能抑制STAT3的磷酸化”.
